Assay results: US8163909B2, “Substituted hydroxyethyl amine compounds as beta-secretase modulators and methods of use” (Amgen Inc., priority 2007, dated 2012)
Like-named read-outs stand apart in the source and are kept apart here.

Assays:
[1] = molecular target: Beta Secretase enzyme (BACE) (Homo sapiens, UniProt P56817); assay: In vitro enzymatic BACE FRET (fluorescence resonance energy transfer) assay; assay type: biochemical;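 further: fluorescence read after 1 h with 50 nM quenched peptide substrate spanning the BACE cleavage site, in pH 4.2 acetate buffer containing 10% DMSO and nonionic detergent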
Beta Secretase enzyme (BACE), sequence (P56817 46-501): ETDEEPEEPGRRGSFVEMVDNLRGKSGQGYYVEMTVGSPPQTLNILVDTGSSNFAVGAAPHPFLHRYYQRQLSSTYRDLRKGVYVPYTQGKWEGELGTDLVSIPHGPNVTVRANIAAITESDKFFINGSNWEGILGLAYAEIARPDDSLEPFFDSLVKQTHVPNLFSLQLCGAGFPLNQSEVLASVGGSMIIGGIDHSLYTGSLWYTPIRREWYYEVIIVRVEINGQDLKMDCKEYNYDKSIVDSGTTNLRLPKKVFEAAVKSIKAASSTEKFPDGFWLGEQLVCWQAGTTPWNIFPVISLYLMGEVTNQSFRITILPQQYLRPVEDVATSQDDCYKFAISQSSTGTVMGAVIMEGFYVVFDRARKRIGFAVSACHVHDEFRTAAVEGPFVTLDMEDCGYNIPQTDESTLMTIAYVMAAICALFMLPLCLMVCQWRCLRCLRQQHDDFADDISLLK

[2] = test system: Aβ40 in conditioned medium of cells stably expressing Amyloid Precursor Protein (APP); assay: In vitro BACE cell-based assay (Aβ40 in conditioned medium, sandwich ELISA);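 further: compounds added as a dilution series, secreted peptide quantified by europium time-resolved fluorescence readout, potency fitted from percent of control versus compound concentration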
[3] = BACE enzyme assay, read-out: BACE1 FRET assay (IC50)
[4] = Homo sapiens, HEK293, HEK cells, cell-based assay, read-out: HEK cell assay (IC50)
[5] = BACE enzyme FRET assay, read-out: BACE1 FRET assay (IC50)
[6] = Table 1, read-out: BACE1 FRET assay
[7] = Homo sapiens, HEK293, Table 1, HEK cells, read-out: HEK cell assay
[8] = BACE enzyme assay, IC50's in uM, read-out: BACE1 FRET assay
[9] = HEK cells, cell-based assay, read-out: HEK cell assay (IC50)

Molecule | IC50 [1, 3] [µM] | IC50 [2, 4] [µM] | further results
COCC(=O)N[C@@H](Cc1ccc(F)cc1)[C@H](O)CN[C@H]1CC2(CCC2)Oc2c1cc(CC(C)(C)C)nc2C [compound 153] | 0.2 | 0.153 | –
COC(C)C(=O)NC(Cc1ccc(F)cc1)C(O)CNC1CC2(CCC2)Oc2ncc(CC(C)(C)C)cc21 [compound 154, (2R)—N-((1S,2R)-3-(((4′S)-6′-(2,2-dimethylpropyl)-3′,4-dihydrospiro[cyclobutane-1,2′-pyrano[2,3-b]pyridin]-4′-yl)amino)-1-((4-fluorophenyl)methyl)-2-hydroxypropyl)-2-(methyloxy)propanamide] | 0.0132 | 0.028 | –
COCC(=O)N[C@@H](Cc1ccc2c(c1)OCO2)[C@H](O)CN[C@H]1CC2(CC(F)(F)C2)Oc2ncc(CC(C)(C)C)cc21 [compound 52] | 0.042 | 0.103 | –
COc1cc(C[C@H](NC(C)=O)[C@H](O)CN[C@H]2CC3(CCC3)Oc3ncc(CC(C)(C)C(F)F)cc32)ccc1Cl [compound 216] | – | 0.0249 | IC50 [1, 5]: 0.016 µM
CC(=O)N[C@@H](Cc1cc(F)cc(F)c1)[C@H](O)CN[C@H]1CC2(CCC2)Oc2c(F)cc(CC(C)(C)C)cc21 [compound 224] | – | 0.0193 | IC50 [1, 5]: 0.00467 µM
COCC(=O)N[C@@H](Cc1ccc2c(c1)OCO2)[C@H](O)CN[C@H]1CC2(CCC2)Oc2ncc(CC(C)(C)C(F)(F)F)cc21 [compound 362] | – | – | IC50 [1, 6]: 0.0601 µM; IC50 [2, 7]: 0.123 µM
CO[C@@H](C)C(=O)N[C@@H](Cc1ccc(F)cc1)[C@H](O)CN[C@H]1CC2(CCC2)Oc2ncc(CC(C)(C)C)cc21 [compound 155] | 0.0401 | 0.076 | –
COCC(=O)N[C@@H](CC1CC1)[C@H](O)CN[C@H]1CC2(CCC2)Oc2ncc(CC(C)(C)C)cc21 [compound 213] | – | 0.0787 | IC50 [1, 5]: 0.057 µM
COCC(=O)N[C@@H](Cc1cccc(C(N)=O)c1)[C@H](O)CN[C@H]1CC2(CCC2)Oc2ncc(CC(C)(C)F)cc21 [compound 863] | – | – | IC50 [1, 8]: 0.013 µM; IC50 ([2]; Homo sapiens, HEK293, cell-based assay, HEK cells, IC50's in uM, read-out: HEK cell assay): 0.033 µM
CC(=O)N[C@@H](Cc1cc(F)cc(F)c1)[C@H](O)CN[C@H]1CC(C)(C)N2CCOc3cc(CC(C)(C)C)cc1c32 [compound 725] | – | – | IC50 ([1]; BACE enzyme assay IC50, read-out: BACE1 FRET assay): 0.059 µM; IC50 ([2]; Homo sapiens, HEK293, HEK cell-based assay IC50, read-out: HEK cell assay): 0.178 µM
CNc1nc(CC(C)(C)C)cc2c1OC1(CCC1)C[C@@H]2NC[C@@H](O)[C@H](Cc1cccc(F)c1)NC(=O)COC [compound 148] | 0.0387 | 0.00654 | –
COCC(=O)N[C@@H](Cc1ccc2c(c1)OCO2)[C@H](O)CN[C@H]1CC2(CCC2)Oc2ccc(CC(C)(C)C)cc21 [compound 290] | – | 0.0549 | IC50 [1, 5]: 0.0231 µM
CC(=O)NC(Cc1ccc(F)cc1)C(O)CNC1CC2(CC(C#N)C2)Oc2ncc(CC(C)(C)C)cc21 [compound 260, N-((1S,2R)-3-(((1s,3R,4′S)-3-cyano-6′-(2,2-dimethylpropyl)-3′,4′-dihydrospiro[cyclobutane-1,2′-pyrano[2,3-b]pyridin]-4′-yl)amino)-1-((4-fluorophenyl)methyl)-2-hydroxypropyl)acetamide] | – | 0.0702 | IC50 [1, 5]: 0.0987 µM
COCC(=O)N[C@@H](Cc1ccc2c(c1)OCO2)[C@H](O)CN[C@H]1CC2(CCC2)Oc2ncc(C[C@@H](C)C(F)(F)F)cc21 [compound 341] | – | – | IC50 [1, 6]: 0.0595 µM; IC50 [2, 7]: 0.138 µM
CC(=O)N[C@@H](Cc1ccc2c(c1)OCO2)[C@H](O)CN[C@H]1CC2(CCC2)Oc2ccc(CC(C)(C)C)cc21 [compound 281] | – | 0.0597 | IC50 [1, 5]: 0.0112 µM
CC(C)(C)Cc1cnc2c(c1)[C@@H](NC[C@@H](O)[C@H](Cc1ccc3c(c1)OCO3)NC(=O)C(C)(Cl)Cl)CC1(CCC1)O2 [compound 98] | 0.54 | – | IC50 [2, 9]: 0.767 µM
CC(=O)N[C@@H](Cc1ccc(F)cc1)[C@H](O)CN[C@H]1CC2(CCC2)Oc2ncc(NC(=O)C(C)(C)C)cc21 [compound 84] | 4.87 | > 10 | –
CO[C@H](C)C(=O)N[C@@H](Cc1ccc2c(c1)OCO2)[C@H](O)CN[C@H]1CC2(CCC2)Oc2ncc(CC(C)(C)C(F)(F)F)cc21 [compound 363] | – | – | IC50 [1, 6]: 0.049 µM; IC50 [2, 7]: 0.16 µM
COCC(=O)N[C@@H](Cc1ccc(F)cc1)[C@H](O)CN[C@H]1CC2(CCC2)Oc2ncc([C@H](F)C(C)(C)C)cc21 [compound 179] | 0.00549 | 0.0186 | –
CC(=O)N[C@@H](Cc1ccc(F)cc1)[C@H](O)CN[C@H]1CC2(CCC2)Oc2ncc(NC(=O)C(C)C)cc21 [compound 86] | 7.47 | 9.73 | –
CC(C)(C)[C@@H](F)c1cnc2c(c1)[C@@H](NC[C@@H](O)[C@H](Cc1ccc3c(c1)OCO3)NC(=O)CF)CC1(CCC1)O2 [compound 185] | 0.0185 | 0.0264 | –

Molecule | IC50 [1, 3] [µM] | IC50 [2, 4] [µM] | further results
CO[C@H](C)C(=O)N[C@@H](Cc1ccc(Cl)c(F)c1)[C@H](O)CN[C@H]1CC2(CCC2)Oc2ncc(CC(C)(C)C(F)F)cc21 [compound 227] | – | 0.0314 | IC50 [1, 5]: 0.0151 µM
CC(=O)N[C@@H](Cc1ccc(F)c(F)c1)[C@H](O)CN[C@H]1CC2(CCC2)Oc2ncc([C@H](F)C(C)(C)C)cc21 [compound 177] | 0.00217 | 0.00934 | –
CO[C@@H](C)C(=O)N[C@@H](Cc1ccc2c(c1)OCO2)[C@H](O)CN[C@H]1CC2(CCC2)Oc2ncc([C@H](F)C(C)(C)C)cc21 [compound 331] | – | – | IC50 [1, 6]: 0.0515 µM; IC50 [2, 7]: 0.0446 µM
CO[C@@H](C)C(=O)N[C@@H](Cc1cccc(F)c1)[C@H](O)CN[C@H]1CC2(CCC2)Oc2ncc(CC(C)(C)C)cc21 [compound 361] | – | – | IC50 [1, 6]: 0.00658 µM; IC50 [2, 7]: 0.00923 µM
CC(C)(C)Cc1cnc2c(c1)[C@@H](NC[C@@H](O)[C@H](Cc1cccc(F)c1)NC(=O)C(Cl)Cl)CC1(CCC1)O2 [compound 105] | 0.00406 | 0.0295 | –
N-((1S,2R)-1-(4-thiazolylmethyl)-3-(((5′S)-3′-(2,2-dimethylpropyl)-5′,8′-dihydro-6′H-spiro[cyclobutane-1,7′-quinolin]-5′-yl)amino)-2-hydroxypropyl)-2-(methyloxy)acetamide [compound 176] | 0.0105 | – | IC50 [2, 9]: 0.017 µM
CC(C)(C)Cc1cnc2c(c1)[C@@H](NC[C@@H](O)[C@H](Cc1ccc3c(c1)OCO3)NC(=O)C(Cl)Cl)CC1(CCC1)O2 [compound 100] | 0.0127 | – | IC50 [2, 9]: 0.0714 µM
CNc1nc(CC(C)(C)C)cc2c1OC1(CCC1)C[C@@H]2NC[C@@H](O)[C@H](Cc1ccc2c(c1)OCO2)NC(=O)COC [compound 125] | 0.057 | 0.0133 | –
CC(=O)N[C@@H](Cc1ccc(F)cc1)[C@H](O)CN[C@H]1C[C@]2(CC[C@@H]2O)Oc2ncc(CC(C)(C)C)cc21 [compound 117] | 0.00785 | 0.0336 | –
CC(=O)N[C@@H](Cc1ccc2c(c1)OCO2)[C@H](O)CN[C@H]1CC2(CCC2)Oc2cnc(C(F)(F)F)cc21 [compound 265] | – | 0.388 | IC50 [1, 5]: 9.6 µM
CC(=O)N[C@@H](Cc1cc(Cl)c2c(c1)OCO2)[C@H](O)CN[C@H]1CC2(CCC2)Oc2ncc(CC(C)(C)C)cc21 [compound 207] | – | 0.0142 | IC50 [1, 5]: 0.00663 µM
C#CCCC(=O)N[C@@H](Cc1ccc2c(c1)OCO2)[C@H](O)CN[C@H]1CC2(CCC2)Oc2ncc(CC(C)(C)C)cc21 [compound 843] | – | – | IC50 [1, 8]: 0.044 µM; IC50 ([2]; Homo sapiens, HEK293, HEK cell-based assay, IC50's in uM, read-out: HEK cell assay): 0.065 µM
COCC(=O)NC(Cc1cc(F)cc(F)c1)C(O)CNC1CC2(CCC2)Oc2ncc(C(O)C(F)(F)F)cc21 (stereo not shown) [compound 349] | – | – | IC50 [1, 6]: 0.166 µM; IC50 [2, 7]: 0.139 µM
CC(C)(C)Cc1cnc2c(c1)[C@@H](NC[C@@H](O)[C@H](Cc1cccc(F)c1)NC(=O)CCl)CC1(CCC1)O2 [compound 107] | 0.00507 | 0.0224 | –
COCC(=O)N[C@@H](Cc1ccccc1)[C@H](O)CN[C@H]1CC2(CCC2)Oc2ncc(CC(C)(C)CF)cc21 [compound 184] | 0.00246 | 0.00645 | –
CC(F)C(=O)N[C@@H](Cc1ccc2c(c1)OCO2)[C@H](O)CN[C@H]1CC2(CCC2)Oc2ncc(CC(C)(C)C)cc21 (stereo partly drawn) [compound 452, N-((1S,2R)-1-(1,3-benzodioxol-5-ylmethyl)-3-(((4′S)-6′-(2,2-dimethylpropyl)-3′,4′-dihydrospiro[cyclobutane-1,2′-pyrano[2,3-b]pyridin]-4′-yl)amino)-2-hydroxypropyl)-2-fluoropropanamide] | – | – | IC50 ([1]; Table 2, read-out: BACE1 FRET assay): 0.016 µM; IC50 ([2]; Homo sapiens, HEK293, Table 2, HEK cells, read-out: HEK cell assay): 0.039 µM
CC(=O)NC(Cc1ccc2c(c1)OCO2)C(O)CNC1CC2(CC(O)C2)Oc2ncc(CC(C)C)cc21 [compound 247, N-((1S,2R)-1-(1,3-benzodioxol-5-ylmethyl)-2-hydroxy-3-(((1s,3S,4′S)-3-hydroxy-6′-(2-methylpropyl)-3′,4′-dihydrospiro[cyclobutane-1,2′-pyrano[2,3-b]pyridin]-4′-yl)amino)propyl)acetamide] | – | 0.0132 | IC50 [1, 5]: 0.00677 µM
CC(=O)N[C@@H](Cc1ccc(F)cc1)[C@H](O)CN[C@@H]1C[C@]2(CC[C@H]2O)Oc2ncc(CC(C)(C)C)cc21 [compound 115] | 6.88 | 5.5 | –
COCC(=O)N[C@@H](Cc1cccc(F)c1)[C@H](O)CN[C@H]1CC2(CCC2)Oc2ncc(CC(C)C)cc21 [compound 329] | – | – | IC50 [1, 6]: 0.00326 µM; IC50 [2, 7]: 0.00601 µM
CC(=O)N[C@@H](Cc1ccc(F)c(Br)c1)[C@H](O)CN[C@H]1CC2(CCC2)Oc2ncc(OC(C)(C)C)cc21 [compound 353, N-((1S,2R)-1-((3-bromo-4-fluorophenyl)methyl)-3-(((4′S)-6′-((1,1-dimethylethyl)oxy)-3′,4′-dihydrospiro[cyclobutane-1,2′-pyrano[2,3-b]pyridin]-4′-yl)amino)-2-hydroxypropyl)acetamide] | – | – | IC50 [1, 6]: 0.12 µM; IC50 [2, 7]: 0.424 µM
